Laboratory results taken from BindingDB's records for patent US20240228491 (Scinnohub Pharmaceutical, 2024).

Biological target: S-adenosylmethionine synthase isoform type-2 (Homo sapiens, UniProt P31153)
Assay: Enzymatic Activity Test
Procedure: The specific steps were as follows: The compounds having the test starling concentration of 1 uM or 10 uM were diluted into 10 concentration points in a 3-fold gradient. 250 nL of the solutions of the compounds to be tested with 10 different concentrations were taken and added into a 384 well plate for later use. 20 ug/mL of MAT2a enzyme solution was prepared with Assay buffer (50 mM Tris, 50 mM KCl, 10 mM MgCl2, 0.05% polyoxyethylene lauryl ether, pH 8.0). 15 uL of the MAT2a enzyme solution at 20 ug/mL was add into the wells of the compounds to be tested at different concentrations; and 15 uL of Assay buffer was added into the negative control well. An incubation was carried out for 15 minutes after shaking for mixing well. A mixed substrate solution (comprising 400 uM ATP and 600 uM L-Methionine) was prepared with Assay buffer. 10 uL of the mixed substrate solution was added to the positive control well, the compound to be tested well, and the negative control well, respectively, and the reaction began, for a reaction time of 150 min. Then, 50 uL of the reaction stop solution (BIOMOL Green Reagent Enzo lifesciences, Cargo No. BML-AK111-1000) was added to stop the reaction, followed by being centrifuged at 1000 rpm for 60 s and then being incubated for 15 min. OD620 was read and data were processed.

Sequence of S-adenosylmethionine synthase isoform type-2 (P31153 whole entry, canonical isoform): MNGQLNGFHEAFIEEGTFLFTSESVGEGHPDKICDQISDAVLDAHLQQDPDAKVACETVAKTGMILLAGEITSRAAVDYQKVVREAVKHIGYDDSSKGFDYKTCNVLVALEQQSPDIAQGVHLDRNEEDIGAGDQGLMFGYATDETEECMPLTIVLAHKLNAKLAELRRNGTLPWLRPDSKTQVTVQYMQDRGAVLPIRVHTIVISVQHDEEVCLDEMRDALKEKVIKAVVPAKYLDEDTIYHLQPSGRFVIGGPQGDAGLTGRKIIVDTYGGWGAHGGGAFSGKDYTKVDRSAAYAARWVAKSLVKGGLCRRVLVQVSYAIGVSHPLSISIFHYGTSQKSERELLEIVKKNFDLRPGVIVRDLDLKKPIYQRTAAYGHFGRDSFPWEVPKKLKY

IC50: 20.2 nM
Structure (SMILES): CNc1c(-c2ccsc2)c(=O)n(-c2ccccc2)c2nc(C(F)(F)F)ccc12 [US20240228491, Example 4]
